PubChem BioAssay AID1963850 (Molecular Pharmacology Branch, DTP, NCI, 2024)

System: 192522-019-R-J2-PDC complex tumor spheroid viability
Assay: Anticancer human tumor 192522-019-R-J2-PDC patient-derived colon adenocarcinoma cell line growth inhibition [POLQ]
Conditions: for IC50: curve of first compound; for viability, T/C: stronger effect = lower value
Summary of the method: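 Three-cell-type spheroids modelling solid tumor plus stroma served as the readout system; POL inhibitors were tested individually and in combination, concentration ranges set by clinical Cmax where known.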

[1] = second compound 0.0316 µM, first compound 0.0316 µM
[2] = second compound 0.0316 µM, first compound 0.1 µM
[3] = second compound 0.0316 µM, first compound 0.316 µM
[4] = second compound 0.0316 µM, first compound 1 µM
[5] = second compound 0.0316 µM, first compound 3.16 µM
[6] = second compound 0.0316 µM, first compound 10 µM
[7] = second compound 0.1 µM, first compound 0.0316 µM
[8] = second compound 0.1 µM, first compound 0.1 µM
[9] = second compound 0.1 µM, first compound 0.316 µM
[10] = second compound 0.1 µM, first compound 1 µM
[11] = second compound 0.1 µM, first compound 3.16 µM
[12] = second compound 0.1 µM, first compound 10 µM
[13] = second compound 0.316 µM, first compound 0.0316 µM
[14] = second compound 0.316 µM, first compound 0.1 µM
[15] = second compound 0.316 µM, first compound 0.316 µM
[16] = second compound 0.316 µM, first compound 1 µM
[17] = second compound 0.316 µM, first compound 3.16 µM
[18] = second compound 0.316 µM, first compound 10 µM
[19] = second compound 1 µM, first compound 0.0316 µM
[20] = second compound 1 µM, first compound 0.1 µM
[21] = second compound 1 µM, first compound 0.316 µM
[22] = second compound 1 µM, first compound 1 µM
[23] = second compound 1 µM, first compound 3.16 µM
[24] = second compound 1 µM, first compound 10 µM
[25] = second compound 3.16 µM, first compound 0.0316 µM
[26] = second compound 3.16 µM, first compound 0.1 µM
[27] = second compound 3.16 µM, first compound 0.316 µM
[28] = second compound 3.16 µM, first compound 1 µM
[29] = second compound 3.16 µM, first compound 3.16 µM
[30] = second compound 3.16 µM, first compound 10 µM
[31] = second compound 10 µM, first compound 0.0316 µM
[32] = second compound 10 µM, first compound 0.1 µM
[33] = second compound 10 µM, first compound 0.316 µM
[34] = second compound 10 µM, first compound 1 µM
[35] = second compound 10 µM, first compound 3.16 µM
[36] = second compound 10 µM, first compound 10 µM
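Also: spheroids exposed to drugs for seven days before reading.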
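For viability, T/C in this document: 100% = DMSO vehicle control viability in luminescence.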

## CC(C)n1c(=O)n(C)c2cnc3cc(F)c(-c4ccc(OCCCN5CCCCC5)nc4)cc3c21 + Cc1cccc(N(C)C(=O)C2C(O)CCN2c2nc(C)cc(C(F)(F)F)c2C#N)c1
Second compound 0.0316 µM
  IC50: > 10 µM
Second compound 0.1 µM
  IC50: > 10 µM
Second compound 0.316 µM
  IC50: > 10 µM
Second compound 1 µM
  IC50: > 10 µM
Second compound 3.16 µM
  IC50: > 10 µM
Second compound 10 µM
  IC50: > 10 µM
[1]
  viability, T/C: 113%
[2]
  viability, T/C: 87%
[3]
  viability, T/C: 102%
[4]
  viability, T/C: 103%
[5]
  viability, T/C: 116%
[6]
  viability, T/C: 99.3%
[7]
  viability, T/C: 104%
[8]
  viability, T/C: 99%
[9]
  viability, T/C: 107%
[10]
  viability, T/C: 107%
[11]
  viability, T/C: 99.8%
[12]
  viability, T/C: 99.5%
[13]
  viability, T/C: 94%
[14]
  viability, T/C: 98.4%
[15]
  viability, T/C: 108%
[16]
  viability, T/C: 105%
[17]
  viability, T/C: 127%
[18]
  viability, T/C: 104%
[19]
  viability, T/C: 98.9%
[20]
  viability, T/C: 110%
[21]
  viability, T/C: 106%
[22]
  viability, T/C: 123%
[23]
  viability, T/C: 116%
[24]
  viability, T/C: 105%
[25]
  viability, T/C: 92%
[26]
  viability, T/C: 103%
[27]
  viability, T/C: 114%
[28]
  viability, T/C: 118%
[29]
  viability, T/C: 134%
[30]
  viability, T/C: 105%
[31]
  viability, T/C: 105%
[32]
  viability, T/C: 94.1%
[33]
  viability, T/C: 117%
[34]
  viability, T/C: 114%
[35]
  viability, T/C: 120%
[36]
  viability, T/C: 110%

## Nc1ccn(C2OC(CO)C(O)C2(F)F)c(=O)n1 (centres undefined) + Cc1cccc(N(C)C(=O)C2C(O)CCN2c2nc(C)cc(C(F)(F)F)c2C#N)c1
Second compound 0.0316 µM
  IC50: > 10 µM
Second compound 0.1 µM
  IC50: > 10 µM
Second compound 0.316 µM
  IC50: > 10 µM
Second compound 1 µM
  IC50: > 10 µM
Second compound 3.16 µM
  IC50: > 10 µM
Second compound 10 µM
  IC50: > 10 µM
[1]
  viability, T/C: 95.9%
[2]
  viability, T/C: 81.6%
[3]
  viability, T/C: 81.8%
[4]
  viability, T/C: 76.2%
[5]
  viability, T/C: 70.3%
[6]
  viability, T/C: 57.2%
[7]
  viability, T/C: 95.9%
[8]
  viability, T/C: 95.7%
[9]
  viability, T/C: 80.6%
[10]
  viability, T/C: 76.5%
[11]
  viability, T/C: 66.6%
[12]
  viability, T/C: 55.5%
[13]
  viability, T/C: 108%
[14]
  viability, T/C: 95.3%
[15]
  viability, T/C: 83.2%
[16]
  viability, T/C: 76.3%
[17]
  viability, T/C: 65.8%
[18]
  viability, T/C: 57.6%
[19]
  viability, T/C: 104%
[20]
  viability, T/C: 90%
[21]
  viability, T/C: 80.6%
[22]
  viability, T/C: 79.9%
[23]
  viability, T/C: 72.3%
[24]
  viability, T/C: 56.5%
[25]
  viability, T/C: 105%
[26]
  viability, T/C: 98.6%
[27]
  viability, T/C: 88.6%
[28]
  viability, T/C: 74%
[29]
  viability, T/C: 77%
[30]
  viability, T/C: 59.7%
[31]
  viability, T/C: 108%
[32]
  viability, T/C: 83.4%
[33]
  viability, T/C: 80.5%
[34]
  viability, T/C: 74.3%
[35]
  viability, T/C: 76.5%
[36]
  viability, T/C: 62.3%
